In this experiment the target is Cholesterol esterase (CEase). The experiment in a line: Inhibition of CEase-catalyzed hydrolysis of p-nitrophenylbutyrate (PNPB). It is filed as biochemical. As to conditions: for Ki: 25.0±0.1 C, pH 7.3, 0.1 M sodium phosphate, 1 mM Triton X100, substrate PNPB, read-out: Ki (inhibition constants for difluoroketone inhibitors of cholesterol esterase). The procedure: The CEase-catalyzed hydrolysis of the water-soluble substrate p-nitrophenylbutyrate (PNPB) is a reaction that is routinely used to characterize inhibitors. The reaction is followed at 25.0±0.1.C and pH 7.3 in 0.1 M sodium phosphate buffer that contains 0.1 N NaC1 , 1 mM Triton X100, and the appropriate concentrations of CEase and PNPB. Inhibitor characterization occurs in two stages: (a) the form of the inhibition is determined by fitting substrate timecourse data to the integrated form of the Michaelis-Menten equation by nonlinear-least squares methods: [formula] Reactions are run in the absence and presence of inhibitor. Lineweaver-Burk plots of the data are constructed, as shown in FIG. 1 for inhibition by iododifluoromethyl 2-naphthyl ketone. (b) The dissociation constant of the CEase-inhibitor complex, Ki, is determined by one of two methods. In the first (Method A), […] is calculated from a replot of the apparent Km values (determined by fitting timecourses to equation (1)) versus inhibitor concentration. The replot is described by equation 2: [formula] […] In the second approach (Method B), initial velocity (Vi) versus inhibitor concentration data are fit by nonlinear-least squares to equation 3: [formula] […] The apparent Ki is then used to calculate the actual Ki from equation 4:
Ki =Ki^app /(1+[S]/Km) (4)
In equation 4 [S] is the concentration of the substrate PNPB and Km, the Michaelis constant for CEase-catalyzed hydrolysis of PNPB, is 0.09 mM.

Molecules are shown by their SMILES.

Consider `O=C(c1ccc2ccccc2c1)C(F)(F)Cl` [Compound 1, Chlorodifluoromethyl 2-Naphthyl Ketone], for which the inhibition constant (Ki) was 2000 nM.
Still for that read-out and setting: the value for `COc1ccc2cc(C(=O)C(F)(F)Cl)ccc2c1` [Compound 2, Chlorodifluoromethyl 2-(6-Methoxy)naphthyl Ketone] was 6000 nM; that for `O=C(c1ccc2ccccc2c1)C(F)(F)I` [Compound 3, Iododifluoromethyl 2-Naphthyl Ketone] was 800 nM.
Same read-out and setting: the figure for `CCCCC(F)(F)C(=O)c1ccc2ccccc2c1` [Compound 4, 1,1-Difluoropentyl 2-Naphthyl Ketone] is 270 nM; for `CCCCC(F)(F)C(=O)c1ccc2cc(OC)ccc2c1` [Compound 5, 1,1-Difluoropentyl 2-(6-Methoxy)naphthyl Ketone] it is 380 nM.
As for `CCCCCC(F)(F)C(=O)c1ccc2ccccc2c1` [Compound 6, 1,1-Difluorohexyl 2-Naphthyl Ketone], the inhibition constant (Ki) amounted to 80 nM. Besides, the “CEase inhibition (in words)” value (summary of Table I Ki values) is “most potent inhibitor”.
Consider `CCCC(=O)Oc1ccc([N+](=O)[O-])cc1` [PNPB, p-nitrophenylbutyrate, reference compound], for which the Michaelis-Menten constant (Km) (Michaelis constant used in equation 4) came to 90 µM.

A word on the Ki: it is a measure of affinity in units of concentration, obtained from inhibition or displacement. As a reminder, the Km is the substrate concentration at which the rate is half of its maximum.
